Measured values taken from ChEMBL document CHEMBL5375945, “Structure-Guided Design of a Domain-Selective Bromodomain and Extra Terminal N-Terminal Bromodomain Chemical Probe” (J Med Chem, 2023).

Key:
[1] = molecular target: T1, Bromodomain-containing protein 4 (Homo sapiens, UniProt O60885); assay: Inhibition of BRD4 BD2 (unknown origin) by TR-FRET assay
[2] = molecular target: T1, Bromodomain-containing protein 4; assay: Inhibition of BRD4 BD1 (unknown origin) by TR-FRET assay

| IC50 [1] | IC50 [2] | SMILES |
| --- | --- | --- |
| 631 nM | – | CC(=O)N1CCC[C@@H](Cn2c(-c3cc(C)c(=O)n(C)c3)nc3ccccc32)C1 |
| 501 nM | 31.6 nM | CC(=O)N1CCC[C@H](Cn2c(-c3cc(C)c(=O)n(C)c3)nc3ccccc32)C1 |
| 501 nM | 10 nM | CC(=O)N1CCC[C@@H](Cn2c(-c3cc(C)c(=O)n(C)c3)nc3cc(Br)ccc32)C1 |
